# Target: T1, Vitronectin receptor αVβ3 (Homo sapiens, UniProt P05106+P06756)
# T1 construct: expressed in transfected cells; host or cells: 512P5 cells (plasma membrane preparation)
# Test: Vitronectin Receptor αVβ3 Binding Assay
# Conditions: read-out: VnR (IC50μM)
# T1 sequence (P06756 31-889 limits assumed): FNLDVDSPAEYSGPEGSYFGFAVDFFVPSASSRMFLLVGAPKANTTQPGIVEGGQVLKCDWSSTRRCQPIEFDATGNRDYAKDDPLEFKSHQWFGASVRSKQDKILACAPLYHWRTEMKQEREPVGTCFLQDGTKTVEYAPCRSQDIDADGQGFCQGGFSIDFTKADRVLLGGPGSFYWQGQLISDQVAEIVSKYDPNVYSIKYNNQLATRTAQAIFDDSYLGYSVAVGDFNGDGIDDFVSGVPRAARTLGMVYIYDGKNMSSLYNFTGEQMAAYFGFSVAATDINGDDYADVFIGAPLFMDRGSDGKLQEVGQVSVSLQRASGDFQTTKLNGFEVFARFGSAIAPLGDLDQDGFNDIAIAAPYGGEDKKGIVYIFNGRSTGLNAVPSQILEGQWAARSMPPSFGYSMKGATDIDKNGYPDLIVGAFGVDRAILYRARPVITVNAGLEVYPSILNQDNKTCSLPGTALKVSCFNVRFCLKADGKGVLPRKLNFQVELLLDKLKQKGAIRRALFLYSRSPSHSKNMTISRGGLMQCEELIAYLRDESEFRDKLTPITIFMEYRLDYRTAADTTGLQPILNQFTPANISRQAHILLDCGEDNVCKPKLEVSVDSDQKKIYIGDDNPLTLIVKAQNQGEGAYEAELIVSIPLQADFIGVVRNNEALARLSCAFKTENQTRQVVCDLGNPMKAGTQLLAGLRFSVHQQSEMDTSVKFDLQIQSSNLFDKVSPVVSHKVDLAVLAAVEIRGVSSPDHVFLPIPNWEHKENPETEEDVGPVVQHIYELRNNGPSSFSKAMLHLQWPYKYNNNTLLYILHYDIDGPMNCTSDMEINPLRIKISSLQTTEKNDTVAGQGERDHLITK
# T1 sequence (P06756 891-1048 partner limits assumed): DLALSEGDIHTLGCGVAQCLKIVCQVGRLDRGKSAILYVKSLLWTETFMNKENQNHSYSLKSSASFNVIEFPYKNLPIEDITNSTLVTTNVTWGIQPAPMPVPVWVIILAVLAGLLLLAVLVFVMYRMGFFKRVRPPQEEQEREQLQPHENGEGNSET
# T1 sequence (P05106 27-788): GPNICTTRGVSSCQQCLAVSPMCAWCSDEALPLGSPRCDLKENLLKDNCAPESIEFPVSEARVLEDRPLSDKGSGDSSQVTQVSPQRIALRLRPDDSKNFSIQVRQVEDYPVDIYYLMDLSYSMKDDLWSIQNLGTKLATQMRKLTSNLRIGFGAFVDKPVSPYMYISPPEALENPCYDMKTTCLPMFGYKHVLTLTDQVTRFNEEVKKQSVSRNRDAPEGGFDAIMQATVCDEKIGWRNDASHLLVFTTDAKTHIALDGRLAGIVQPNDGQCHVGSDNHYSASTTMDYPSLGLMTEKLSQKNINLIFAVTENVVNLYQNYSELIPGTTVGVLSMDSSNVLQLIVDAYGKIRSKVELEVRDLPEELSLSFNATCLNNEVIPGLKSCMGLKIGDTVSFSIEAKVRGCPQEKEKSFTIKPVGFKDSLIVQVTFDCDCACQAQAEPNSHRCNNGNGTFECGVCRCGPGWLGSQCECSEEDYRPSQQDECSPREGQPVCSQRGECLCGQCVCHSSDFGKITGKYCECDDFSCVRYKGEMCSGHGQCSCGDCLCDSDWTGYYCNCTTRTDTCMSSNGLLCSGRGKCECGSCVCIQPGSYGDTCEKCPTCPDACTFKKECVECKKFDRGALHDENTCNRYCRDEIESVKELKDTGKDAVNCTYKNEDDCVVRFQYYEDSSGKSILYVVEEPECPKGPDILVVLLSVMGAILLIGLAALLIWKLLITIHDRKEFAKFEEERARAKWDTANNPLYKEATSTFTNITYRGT
row,IC50,Structure (SMILES)
1,1.6 µM,"CC(C)(C)COC(=O)N[C@@H](CNC(=O)c1ccc(OCCNC2=NCCCCC2)cc1O)C(=O)O [Example 142, (2S)-3-({2-hydroxy-4-[2-(3,4,5,6-tetrahydro-2H-azepin-7-ylamino)ethoxy]benzoyl}amino)-2-{[(neopentyloxy)carbonyl]amino}propanoic acid]"
2,4.79 µM,"O=C(N[C@@H](CNC(=O)c1ccc(OCCNC2=NCCCCC2)cc1O)C(=O)O)OCc1ccccc1 [Example 143, (2S)-2-{[(benzyloxy)carbonyl]amino}-3-({2-hydroxy-4-[2-(3,4,5,6-tetrahydro-2-azepin-7-ylamino)ethoxy]benzoyl}amino)propanoic acid]"
3,2.4 µM,"O=C(N[C@@H](CNC(=O)c1ccc(OCCNC2=NCCCCC2)cc1O)C(=O)O)OCC(Cl)(Cl)Cl [Example 153, (2S)-3-({2-hydroxy-4-[2-(3,4,5,6-tetrahydro-2H-azepin-7-ylamino)ethoxy]benzoyl}-amino)-2-{[(2,2,2-trichloroethoxy)carbonyl]amino}propanoic acid]"
4,0.25 µM,"CC(C)(C)COC(=O)N[C@@H](CNC(=O)c1ccc(OCCNC(=N)N)cc1O)C(=O)O [Example 156, (2S)-3-{[4-(2-{[amino(imino)methyl]amino}ethoxy)-2-hydroxy-benzoyl]amino}-2-{[(neopentyloxy)carbonyl]amino}propanoic acid]"
5,4.6 µM,"COC(=O)N[C@@H](CNC(=O)c1ccc(OCCNC(=N)N)cc1O)C(=O)O [Example 158, (2S)-3-{[4-(2-{[amino(imino)methyl]amino)ethoxy)-2-hydroxybenzoyl]amino}-2-[(methoxycarbonyl)amino]propanoic acid]"
6,2 µM,"CCOC(=O)N[C@@H](CNC(=O)c1ccc(OCCNC(=N)N)cc1O)C(=O)O [Example 159, (2S)-3-{[4-(2-{[amino(imino)methyl]amino)ethoxy)-2-hydroxybenzoyl]amino}-2-[(ethoxycarbonyl)amino]propanoic acid]"
7,0.97 µM,"CCCOC(=O)N[C@@H](CNC(=O)c1ccc(OCCNC(=N)N)cc1O)C(=O)O [Example 160, (2S)-3-{[4-(2-{[amino(imino)methyl]amino}ethoxy)-2-hydroxybenzoyl]amino}-2-[(propoxycarbonyl)amino]propanoic acid]"
8,0.9 µM,"CC(C)OC(=O)N[C@@H](CNC(=O)c1ccc(OCCNC(=N)N)cc1O)C(=O)O [Example 161, (2S)-3-{[4-(2-{[amino(imino)methyl]amino}ethoxy)-2-hydroxybenzoyl]amino}-2-[(isopropoxycarbonyl)amino]propanoic acid]"
9,1.1 µM,C=CCOC(=O)N[C@@H](CNC(=O)c1ccc(OCCNC(=N)N)cc1O)C(=O)O [Example 162]
10,1.1 µM,"C=CCCOC(=O)N[C@@H](CNC(=O)c1ccc(OCCNC(=N)N)cc1O)C(=O)O [Example 163, (2S)-3-{[4-(2-{[amino(imino)methyl]amino}ethoxy)-2-hydroxybenzoyl]amino}-2-{[(but-3-enyloxy)carbonyl]amino}propanoic acid]"
11,0.39 µM,"N=C(N)NCCOc1ccc(C(=O)NC[C@H](NC(=O)OCC(Cl)(Cl)Cl)C(=O)O)c(O)c1 [Example 165, (2S)-3-{[4-(2-{[amino(imino)methyl]amino}ethoxy)-2-hydroxybenzoyl]amino}-2-{[(2,2,2-trichloroethoxy)carbonyl]amino}propanoic acid]"
12,0.8 µM,"CCCCCCOC(=O)N[C@@H](CNC(=O)c1ccc(OCCNC(=N)N)cc1O)C(=O)O [Example 166, (2S)-3-{[4-(2-{[amino(imino)methyl]amino}ethoxy)-2-hydroxybenzoyl]amino}-2-{[(hexyloxy)carbonyl]amino}propanoic acid]"
13,2.6 µM,"C#CCOC(=O)N[C@@H](CNC(=O)c1ccc(OCCNC(=N)N)cc1O)C(=O)O [Example 167, (2S)-3-{[4-(2-{[amino(imino)methyl]amino}ethoxy)-2-hydroxybenzoyl]amino}-2-{[(prop-2-ynyloxy)carbonyl]amino}propanoic acid]"
14,4.28 µM,"Cc1ccccc1NC(=O)N[C@@H](CNC(=O)c1ccc(OCCNC(=N)N)cc1O)C(=O)O [Example 173, (2S)-3-{[4-(2-{[amino(imino)methyl]amino}ethoxy)-2-hydroxybenzoyl]amino}-2-[(2-toluidinocarbonyl)amino]propanoic acid]"
15,3.89 µM,"COc1ccccc1NC(=O)N[C@@H](CNC(=O)c1ccc(OCCNC(=N)N)cc1O)C(=O)O [Example 174, (2S)-3-{[4-(2-{[amino(imino)methyl]amino}ethoxy)-2-hydroxybenzoyl]amino}-2-{[(2-methoxyanilino)carbonyl]amino}propanoic acid]"
16,3.8 µM,"N=C(N)NCCOc1ccc(C(=O)NC[C@H](NC(=O)Nc2ccccc2Cl)C(=O)O)c(O)c1 [Example 175, (2S)-3-{[4-(2-{[amino(imino)methyl]amino}ethoxy)-2-hydroxybenzoyl]amino}-2-{[(2-chloroanilino)carbonyl]amino}propanoic acid]"
17,2.14 µM,"N=C(N)NCCOc1ccc(C(=O)NC[C@H](NC(=O)Nc2ccccc2Br)C(=O)O)c(O)c1 [Example 176, (2S)-3-{[4-(2-{[amino(imino)methyl]amino}ethoxy)-2-hydroxybenzoyl]amino}-2-{[(2-bromoanilino)carbonyl]amino}propanoic acid]"

row,IC50,Structure (SMILES)
1,4.87 µM,N=C(N)NCCOc1ccc(C(=O)NC[C@H](NC(=O)Nc2ccccc2-c2ccccc2)C(=O)O)c(O)c1 [Example 177]
2,3.13 µM,"Cc1ccc(NC(=O)N[C@@H](CNC(=O)c2ccc(OCCNC(=N)N)cc2O)C(=O)O)cc1 [Example 178, (2S)-3-{[4-(2-{[amino(imino)methyl]amino}ethoxy)-2-hydroxybenzoyl]amino}-2-[(4-toluidinocarbonyl)amino]propanoic acid]"
3,> 1 µM,"N=C(N)NCCOc1ccc(C(=O)NC[C@H](NC(=O)Nc2ccc(OC(F)(F)F)cc2)C(=O)O)c(O)c1 [Example 179, (2S)-3-{[4-(2-{[amino(imino)methyl]amino}ethoxy)-2-hydroxybenzoyl]amino}-2-({[4-(trifluoromethoxy)anilino]carbonyl}amino)propanoic acid]"
4,19.5 µM,"N=C(N)NCCOc1ccc(C(=O)NC[C@H](NC(=O)Nc2ccc(Cl)cc2)C(=O)O)c(O)c1 [Example 180, (2S)-3-{[4-(2-{[amino(imino)methyl]amino}ethoxy)-2-hydroxybenzoyl]amino}-2-{[(4-chloroanilino)carbonyl]amino}propanoic acid]"
5,19.7 µM,"N=C(N)NCCOc1ccc(C(=O)NC[C@H](NC(=O)Nc2ccc(F)cc2)C(=O)O)c(O)c1 [Example 181, (2S)-3-{[4-(2-{[amino(imino)methyl]amino}ethoxy)-2-hydroxybenzoyl]amino}-2-{[(4-fluoroanilino)carbonyl]amino}propanoic acid]"
6,40.9 µM,"CC(=O)c1ccc(NC(=O)N[C@@H](CNC(=O)c2ccc(OCCNC(=N)N)cc2O)C(=O)O)cc1 [Example 182, (2S)-2-{[(4-acetylanilino)carbonyl]amino}-3-{[4-(2-{[amino(imino)methyl]-amino}ethoxy)-2-hydroxybenzoyl]amino}propanoic acid]"
7,4.98 µM,"N=C(N)NCCOc1ccc(C(=O)NC[C@H](NC(=O)NC2CCCCC2)C(=O)O)c(O)c1 [Example 183, (2S)-3-{[4-(2-{[amino(imino)methyl]amino}ethoxy)-2-hydroxybenzoyl]amino}-2-{[(cyclohexylamino)carbonyl]amino}propanoic acid]"
8,17.9 µM,"N=C(N)NCCOc1ccc(C(=O)NC[C@H](NC(=O)Nc2cccc3ccccc23)C(=O)O)c(O)c1 [Example 184, (2S)-3-{[4-(2-{[amino(imino)methyl]amino}ethoxy)-2-hydroxybenzoyl]amino}-2-{[(1-naphthylamino)carbonyl]amino}propanoic acid]"
9,4.57 µM,"N=C(N)NCCOc1ccc(C(=O)NC[C@H](NC(=O)NCc2ccccc2)C(=O)O)c(O)c1 [Example 185, (2S)-3-{[4-(2-{[amino(imino)methyl]amino}ethoxy)-2-hydroxybenzoyl]amino}-2-{[(benzylamino)carbonyl]amino}propanoic acid]"
10,6.99 µM,N=C(N)NCCOc1ccc(C(=O)NC[C@H](NC(=O)NCCc2ccccc2)C(=O)O)c(O)c1 [Example 186]
11,19.5 µM,"CCCCCCCCNC(=O)N[C@@H](CNC(=O)c1ccc(OCCNC(=N)N)cc1O)C(=O)O [Example 187, (2S)-3-{[4-(2-{[amino(imino)methyl]amino}ethoxy)-2-hydroxybenzoyl]amino}-2-{[(octylamino)carbonyl]amino}propanoic acid]"
12,12.1 µM,COc1ccc(NC(=O)N[C@@H](CNC(=O)c2ccc(OCCNC(=N)N)cc2O)C(=O)O)cc1 [Example 188]
13,6.87 µM,"N=C(N)NCCOc1ccc(C(=O)NC[C@H](NC(=O)Nc2ccccc2)C(=O)O)c(O)c1 [Example 189, (2S)-3-{[4-(2-{[amino(imino)methyl]amino}ethoxy)-2-hydroxybenzoyl]amino}-2-[(anilinocarbonyl)amino]propanoic acid]"
14,> 1 µM,"CC(C)C(=O)N[C@@H](CNC(=O)c1ccc(OCCNC(=N)N)cc1O)C(=O)O [Example 190, (2S)-3-{[4-(2-{[amino(imino)methyl]amino}ethoxy)-2-hydroxybenzoyl]amino}-2-(isobutyrylamino)propanoic acid]"
15,> 1 µM,"CCCC(=O)N[C@@H](CNC(=O)c1ccc(OCCNC(=N)N)cc1O)C(=O)O [Example 191, (2S)-3-{[4-(2-{[amino(imino)methyl]amino}ethoxy)-2-hydroxybenzoyl]amino}-2-(butyrylamino)propanoic acid]"
16,> 1 µM,"CCCCCC(=O)N[C@@H](CNC(=O)c1ccc(OCCNC(=N)N)cc1O)C(=O)O [Example 192, (2S)-3-{[4-(2-{[amino(imino)methyl]amino}ethoxy)-2-hydroxybenzoyl]amino}-2-(hexanoylamino)propanoic acid]"

row,Structure (SMILES),IC50
1,"CCCCOC(=O)N[C@@H](CNC(=O)c1ccc(OCCNC(=N)N)cc1O)C(=O)O [Example 164, (2S)-3-{[4-(2-{[amino(imino)methyl]amino}ethoxy)-2-hydroxybenzoyl]amino}-2-[(butoxycarbonyl)amino]propanoic acid]",0.61 µM
